According to US12031897B2, “Target-locking single-molecule nanoscopy” (Memorial Sloan Kettering Cancer Center, priority 2019, dated 2024):
Values joined by “and” are separate entries in the source; they are usually repeats but may differ in a detail not shown here. Equal values may be shown once.

What was measured:
[1] = biological target: T1, Brd4 foci at the Pou5f1 locus (Mus musculus, UniProt Q9ESU6); assay: Brd4 cluster signal at Pou5f1 upon inhibition (live-cell confocal/STED scans); format: cell-based; settings: Pou5f1
T1 construct: integrating a SNAP-tag at the N-terminus of the endogenous Brd4; endogenous in cells; host or cells: mouse ESCs OMG-1, homozygous SNAP-Brd4 knock-in clone 9 (printed as 'OMG SNAP-Cdk9 clone 9')
Description: For real-time confocal and STED imaging, example implementations may program the wave generator to scan 2 μm×2 μm or 1 μm×1 μm xy areas in 0.8 sec or 0.2 sec respectively. 3D scanning was performed (via, e.g., detection system 150) by acquiring 5 xy scans while moving the stage by 0.5 μm in z between scans. TTL pulses corresponding to single-photon events from the APDs, together with the trigger pulses from the wave generator were detected using a field-programmable gate array (FPGA) data acquisition system (National Instruments, PCIe-7852R).
(§1) Before imaging, cells were seeded onto 8-chamber coverglass (LabTek, 155411) coated with 5 μg/ml laminin (BioLamina LN511), in −2i media (OMG) or +2i media (NMG) and appropriate drugs. For SiR staining, cells were labeled with media containing 0.3 μM SiR-BG for 10 mins, at 37° C., followed by three washes with new media.
To generate OMG or NMG SNAP-Brd4 targeted cells, OMG-1 or NMG mESCs (1×106) were transfected with 10 μg SNAP-Brd4 donor vector and 0.6 μg espCas9-gRNA-Brd4 vector. 10 days after transfection, the cells were trypsinized, labeled with SiR-BG and subjected to FACS, generating a first-round SiR-positive pool. This pool was then expanded, stained with SiR-BG and subjected to second FACS round and individual clones were picked and expanded.

[2] = tested on: Pou5f1 transcription site (MCP-mNeonGreen nascent RNA); assay: MCP-mNeonGreen nascent transcription at the endogenous Pou5f1 locus in mESCs (live-cell imaging); format: cell-based, mouse
Description: All the mESCs were cultured and maintained in +2i media with appropriate selection drugs on 0.1% gelatin-coated dishes, at 37° C. in a humidified 5% CO2 incubator. +2i media contain D-MEM (Thermo Fisher Scientific 10313021), 15% fetal bovine serum (Gemini Bio 100-500), 0.1 mM β-mercaptoethanol (Thermo Fisher Scientific 21985023), 2 mM L-alanyl-L-glutamine (Thermo Fisher Scientific 35050079), 1×MEM nonessential amino acids (Thermo Fisher Scientific 11140076), 1000 U/mL LIF (Millipore ESG1107), […] (Millipore 361559) and 1 μM PD0325901 (Axon Medichem 1408). OMG and NMG SNAP-Rpb1 cells were cultured with +2i media plus 3 μg/ml α-amanitin.
as §1
Wide-Field Cell Imaging Experiments. Live cell imaging experiments (tdPCP-EGFP and MCP-mNeonGreen tracking). For time-lapse imaging, a z-stack of 11 frames at 1 frame/second was acquired, by stepping the sample along the z-axis using the nanopositioning stage (250 nm steps). The CCD data were analyzed using IDL 6.4 (ITTVIS). Maximum projection images were calculated for each stack, and the resulting 11 sec/frame movie was used to track the intensities of individual tdPCP-EGFP-tagged transcription sites. A particle tracking routine (Crocker and Grier, 1996) was used for finding the positions of the transcription site in each frame and linking them into a 2D trajectory. The intensity trace of tdPCP-EGFP at the transcription site was corrected for photo-bleaching using the time trace of tdPCP-EGFP in a nearby nuclear region. The auto-correlation function was calculated (for the tdPCP-EGFP fluctuation analysis), or the data were imported in Origin 8.5.0 (OriginLab) and the trace fitted to a single-exponential decay (for the transcription inhibition experiments).

[3] = tested on: Sox2 foci at the Pou5f1 locus; assay: Sox2 cluster signal at Pou5f1 upon inhibition (live-cell confocal/STED scans); format: cell-based, mouse; settings: Pou5f1
From the text: Contrary to Brd4, Med22 and Cdk9, Sox2 clustering persists through transcription inhibition by either JQ1 or FVP (FIG. 8D). The differential sensitivities between factors and modes of transcription inhibition unveil a hierarchy of molecular transactions that control Pou5f1 transcription: Sox2 binding occurs upstream of Cdk9/Med22/Brd4 recruitment and accumulation of all of 4 regulatory factors occurs upstream of Pol II release into productive elongation. […] For real-time confocal and STED imaging, example implementations may program the wave generator to scan 2 μm×2 μm or 1 μm×1 μm xy areas in 0.8 sec or 0.2 sec respectively. 3D scanning was performed (via, e.g., detection system 150) by acquiring 5 xy scans while moving the stage by 0.5 μm in z between scans. TTL pulses corresponding to single-photon events from the APDs, together with the trigger pulses from the wave generator were detected using a field-programmable gate array (FPGA) data acquisition system (National Instruments, PCIe-7852R). Before imaging, cells were seeded onto 8-chamber coverglass (LabTek, 155411) coated with 5 μg/ml laminin (BioLamina LN511), in -2i media (OMG) or +2i media (NMG) and appropriate drugs. For SiR staining, cells were labeled with media containing 0.3 μM SiR-BG for 10 mins, at 37° C., followed by three washes with new media. Targeted integration of SNAP-tag in the endogenous Sox2, Cdk9, Brd4 and Med22 genes. To generate OMG or NMG SNAP-Sox2 targeted cells, OMG-1 or NMG mESCs (1×106) were transfected with 10 μg SNAP-Sox2 donor vector and 0.6 μg […] vector. 10 days after transfection, the cells were trypsinized, labeled with 0.3 μM SiR-BG for 10 mins, rinsed three times with new media, followed by immediate fluorescence-activated cell sorting (FACS). All the SiR-positive cells were collected, expanded for 2 weeks, trypsinized, labeled with SiR-BG and sorted again. Almost 100% SNAP positive pools were obtained from the second round of sorting and individual clones were picked and expanded. Homozygous clones (dubbed “OMG SNAP-Sox2 clone 8” and NMG SNAP-Sox2 clone 3'' respectively) with both Sox2 alleles correctly targeted with SNAP-tag integrations and that show SiR nuclear staining were selected for all further experiments.

[4] = tested on: H3K27ac at the Pou5f1 locus; assay: ChIP-qPCR analysis of H3K27ac after A-485 treatment; format: cell-based, mouse; settings: for H3K27ac characteristic decay time: 1 μM A-485
Description: ChIP-qPCR analysis of H3K27ac after A-485 treatment. For H3K27ac and H3 ChIP-qPCR experiments, confluent 10 cm dishes (˜3×10^6 OMG SNAP-Sox2 cells) were treated with 1 μM A-485 (Structural Genomics Consortium) or 0.1% v/v DMSO for the indicated times. Fixation, cell lysis, sonicated chromatin preparation, immunoprecipitation and qPCR analysis were performed as described for OMG SNAP-Rpb1 cells in the previous section, with the exception that 5 μg H3K27ac antibody (Active Motif 39685) or 5 μg H3 antibody (Active Motif 39763) were used for each IP respectively.

Brd4 signal exponential fit τ ([1]; inhibition with 1 μM A-485 (FIG. 16J legend)): 8 ± 1 s
Brd4 cluster shrinking time ([1]; upon A-485 inhibition): 8 min
Structure (SMILES): CNC(=O)Nc1ccc2c(c1)CC[C@@]21OC(=O)N(CC(=O)N(Cc2ccc(F)cc2)[C@@H](C)C(F)(F)F)C1=O [A-485]
time until nascent Pou5f1 transcription shuts down ([2]; 1 μM A-485): ≤ 20 min
MCP decay time upon p300/CBP HAT inhibition ([2]; Pou5f1, mESCs, 1 μM A-485, mean±S.D., n=17): 635 s and 635 ± 350 s
transcription shutdown time-scale ([2]; Pou5f1, upon A-485 inhibition): 10.5 min
response of individual Pou5f1 transcription sites at intermediate inhibitor concentration ([2]; intermediate [A-485] or [JQ1]): all-or-none responses
Sox2 cluster size characteristic decay time ([3]; upon A-485 inhibition): 12.5 min
Sox2 signal exponential fit τ ([3]; upon adding 1 μM A-485 (FIG. 8I legend)): 12.5 ± 8.6 s
H3K27ac characteristic decay time ([4]; primer pair 4): 7 ± 2 min
H3K27ac characteristic decay time ([4]; primer pair 5): 7 ± 4 min
H3K27ac characteristic decay time ([4]; primer pair 6): 5 ± 1 min
H3K27ac characteristic decay time ([4]; primer pair 7): 13 ± 4 min
H3K27ac loss kinetics ([4]; upon A-485 inhibition): ~7 min
